According to patent publication US20060014231A1, “Methods and compositions to promote bone homeostasis” (priority 2004, published 2006):

Tests used:
[1] = system: primary human MPCs; test: Mineralization assay (Alizarin RedS / Von Kossa stain); format: cell-based; settings: MPCs with NR1H3 and ligand
Protocol: On day one, primary human MPCs are seeded in a 6 well plate (Costar or Nunc) at a density of 50,000 to 250,000 cells per well, typically at 100,000 cells per well. MPCs are co-infected one day later with AdC15-hCAR (MOI 750) and Ad-control (eGFP or BMP2) or hit-virus (Ad5) (at MOIs between 250 and 20,000, typically at MOIs 5000 and 2500). For Ad-GPCR or Ad-NHR experiments, cells can additionally be treated with specific ligands. These are added at the EC50 concentration and at concentrations 5-10 times higher and lower. Ligands are added 2-3 times per week. Medium supplemented with 100 μg/ml L-ascorbate and 10 mM beta-glycerophosphate, is refreshed 2 times a week. 20 to 30 days after the start of the experiment, cells are stained with Von Kossa stain or with Alizarin RedS stain.
The Alizarin RedS staining is carried out as follows: cells are washed once with PBS, fixed with 10% paraformaldehyde for 45 minutes at 4° C., and washed 2 times with PBS. Cells are incubated with 40 mM aqueous Alizarin RedS solution, pH 4.1-4.3 for 10 minutes followed by 5 washes with distilled water. Staining is evaluated and photographed using white light.

[2] = system: RUNX2; test: DN-RUNX2 assay: interference with up-regulation of AP activity in MPCs; format: cell-based, human; settings: Ad-NR1H3 + T0901317 plus Ad-DN-RUNX2 versus Ad-luciferase, 6 days post infection
Source text: Since the osteogenic activity of BMP2 is known to work through RUNX2, Ad-BMP2 and Ad-DN-RUNX2 viruses are used to develop the DN-RUNX2 assay. The human full-length RUNX2 cDNA is obtained by RT-PCR from total RNA extracted from MPCs. The 5′ part of the cDNA encoding amino acids 1-214 is obtained by PCR from the cloned RUNX2 cDNA and subcloned in an adenoviral adapter plasmid. The identity of the cloned fragment is verified by sequencing. This plasmid is used to generate an adenoviral stock, as described in WO 9964582.
MPCs are seeded at 1000 cells/well in a 384 well plate and infected the next day with adenoviruses encoding hCAR (MOI 250), Ad-BMP2 (MOIs 6000, 2000, 666) and one of Ad-DN-RUNX2 or Ad-luciferase (MOIs 2000 or 666). Alkaline phosphatase activity is read 6 days post infection.
The DN-RUNX2 assay is used to test the involvement of RUNX2 in the up-regulation of AP activity by NR5A2, NR1H3, and ESRRG. MPCs are seeded at 1000 cells/well in a 384 well plate and are infected the next day with adenoviruses encoding hCAR (MOI 250), Ad-BMP2, Ad-ESRRG, Ad-NR5A2, Ad-NR1H3 (MOIs 6000, 2000, 666) and one of Ad-DN-RUNX2 or Ad-luciferase (MOI 1000 or MOIs 2000 and 666) (see FIG. 19(C)). Alkaline phosphatase activity is read 6 days post infection and raw data are analysed.

With O=S(=O)(c1ccccc1)N(CC(F)(F)F)c1ccc(C(O)(C(F)(F)F)C(F)(F)F)cc1 [T0901317] the mineralization [1] was “score well” and the “up-regulation of AP activity induced by NR1H3 in the presence of T0901317, under overexpression of DN-RUNX2” value [2] was “significantly reduces”.
